Laboratory results from the NIST ThermoML archive (doi:10.1016/j.jct.2012.06.012).

Assay: xn = mol fraction of the nth substance listed
Details: Liquid, Vibrating tube method

CCCCCCCCCC [decane] + CCO
mass density [kg/m3]
Details	x2 = 0.0937	x2 = 0.1011	x2 = 0.4963	x2 = 0.7526	x2 = 0.9014
342.81 K, 1000 kPa	691.26	691.32	698.84	–	–
342.81 K, 2000 kPa	692.32	692.38	699.92	–	–
342.81 K, 3000 kPa	693.37	693.43	700.98	–	–
342.81 K, 4000 kPa	694.4	694.46	702.03	–	–
342.81 K, 5000 kPa	695.42	695.48	703.09	–	–
342.81 K, 6000 kPa	696.42	696.48	704.13	–	–
342.81 K, 7000 kPa	697.41	697.47	705.18	–	–
342.81 K, 8000 kPa	698.4	698.46	706.22	–	–
342.81 K, 9000 kPa	699.37	699.44	707.25	–	–
342.81 K, 10000 kPa	700.35	700.42	708.27	–	–
342.81 K, 11000 kPa	701.32	701.38	709.28	–	–
342.81 K, 12000 kPa	702.28	702.33	710.29	–	–
342.81 K, 13000 kPa	703.21	703.27	711.26	–	–
342.81 K, 14000 kPa	704.14	704.2	712.23	–	–
342.81 K, 15000 kPa	705.06	705.12	713.19	–	–
342.81 K, 16000 kPa	705.95	706.02	714.13	–	–
342.81 K, 17000 kPa	706.83	706.9	715.07	–	–
342.81 K, 18000 kPa	707.7	707.77	715.97	–	–
342.81 K, 19000 kPa	708.56	708.63	716.86	–	–
342.81 K, 20000 kPa	709.39	709.45	717.73	–	–
342.86 K, 1000 kPa	–	–	–	711.77	726.79
342.86 K, 2000 kPa	–	–	–	712.88	727.93
342.86 K, 3000 kPa	–	–	–	713.97	729.05
342.86 K, 4000 kPa	–	–	–	715.06	730.15
342.86 K, 5000 kPa	–	–	–	716.15	731.27
342.86 K, 6000 kPa	–	–	–	717.23	732.36
342.86 K, 7000 kPa	–	–	–	718.31	733.45
342.86 K, 8000 kPa	–	–	–	719.38	734.54
342.86 K, 9000 kPa	–	–	–	720.44	735.62
342.86 K, 10000 kPa	–	–	–	721.49	736.69
342.86 K, 11000 kPa	–	–	–	722.54	737.75
342.86 K, 12000 kPa	–	–	–	723.57	738.79
342.86 K, 13000 kPa	–	–	–	724.58	739.82
342.86 K, 14000 kPa	–	–	–	725.59	740.84
342.86 K, 15000 kPa	–	–	–	726.57	741.84
